This note sets out measurements from patent publication US10584115B2, “Substituted pyridine and pyrazine BMI-1 inhibitors” (PTC Therapeutics, Inc., priority 2013, dated 2020).

In one test the test system is Bmi-1 protein. The experiment in a line: Sandwich ELISA Assay (Bmi-1 protein level in HT-1080 cells after compound treatment). It is filed as cell-based. The conditions noted are these: Table 1, Bmi-1 sandwich ELISA, read-out: ELISA EC50 value for Bmi-1 protein. In a few lines: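 Sandwich ELISA quantified Bmi-1 protein against recombinant standard (125–8000 pg/mL), with lysates captured overnight at 4 °C and signal by HRP/TMB at 450 nm (570 nm reference). Lysates came from HT-1080 cells incubated 40–48 h with test compounds in 0.5% DMSO.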
In general terms: An ELISA detects its analyte on a solid surface through an enzyme-linked reagent.
In general, EC50 refers to the midpoint of the concentration-response curve. On to `COc1c(F)cc(Nc2cc(C#N)cc(-c3c(C4CC4)nc4ccc(F)cn34)n2)cc1F` [compound 351, 2-(2-cyclopropyl-6-fluoroimidazo[1,2-a]pyridin-3-yl)-6-[(3,5-difluoro-4-methoxyphenyl)amino}pyridine-4-carbonitrile], for which the EC50 fell in the range of 10 to 100 nM. Take `Fc1cnc2nc(C3CC3)n(-c3cncc(Nc4ccc(OC(F)F)cc4)n3)c2c1` [compound 455, 6-(2-cyclopropyl-6-fluoro-1H-imidazo[4,5-b]pyridin-1-yl)-N-[4-(difluoromethoxy)phenyl]pyrazin-2-amine]: the EC50 was in the range of 10 to 100 nM. With `Cc1cc(Nc2cncc(-n3c(C)nc4ccccc43)n2)ccc1C(F)(F)F` [compound 408, 6-(2-methyl-1H-benzimidazol-1-yl)-N-[3-methyl-4-(trifluoromethyl)phenyl]pyrazin-2-amine], the EC50 was 10 to 100 nM. With `C[C@H](O)c1nc2ccccc2n1-c1cncc(Nc2ccc(C(F)(F)F)cc2)n1` [compound 98, (1S)-1-[1-(6-{[4-(trifluoromethyl)phenyl]amino}pyrazin-2-yl)-1H-benzimidazol-2-yl]ethanol], the EC50 fell in the range of 10 to 100 nM. For the molecule `FC(F)(F)c1ccc(Nc2cncc(-c3c(C(F)(F)F)nc4ccccn34)n2)cc1` [Cpd 6, 6-[2-(trifluoromethyl)imidazo[1,2-a]pyridin-3-yl]-N-[4-(trifluoromethyl)phenyl]pyrazin-2-amine], the 50% effective concentration (EC50) lay within 1 to 10 nM. Turning to `COc1ccc(Nc2cccc(-n3c(C)cc4ccccc43)n2)cc1` [compound 174, N-(4-methoxyphenyl)-6-(2-methyl-1H-indol-1-yl)pyridin-2-amine], the 50% effective concentration (EC50) is 100 to 3000 nM. On the same count and under the same terms, next, `Cc1nc2ccccc2n1-c1cccc(Nc2ccc(OC(F)(F)F)cc2)n1` [Cpd 36, 6-(2-methyl-1H-benzimidazol-1-yl)-N-[4-(trifluoromethoxy)phenyl]pyridin-2-amine]: 100 to 3000 nM; `Cc1n[nH]c(C)c1-c1cncc(Nc2ccc(C(F)(F)F)cc2)n1` [compound 226, 6-(3,5-dimethyl-1H-pyrazol-4-yl)-N-[4-(trifluoromethyl)phenyl]pyrazin-2-amine]: 100 to 3000 nM; `CCc1nn2ccc(Cl)cc2c1-c1cncc(Nc2ccc(C(F)(F)F)cc2)n1` [compound 539, 6-(5-chloro-2-ethylpyrazolo[1,5-a]pyridin-3-yl)-N-[4-(trifluoromethyl)phenyl]pyrazin-2-amine]: 10 to 100 nM. Still for that read-out and setting: next, `Cc1nc2cc(OC(F)(F)F)ccc2n1-c1cncc(Nc2ccc(C(F)(F)F)cc2)n1` [compound 356, 6-[2-methyl-5-(trifluoromethoxy)-1H-benzimidazol-1-yl]-N-[4-(trifluoromethyl)phenyl]pyrazin-2-amine]: 100 to 3000 nM; `COc1ccc(Nc2cncc(-n3cnc4ccccc43)n2)cc1` [compound 1, 6-(1H-benzimidazol-1-yl)-N-(4-methoxyphenyl)pyrazin-2-amine]: 10 to 100 nM; `ONc1cc(Nc2ccc(C(F)(F)F)cc2)nc(-c2c(C(F)(F)F)nc3ccc(F)cn23)c1` [compound 418, 6-[6-fluoro-2-(trifluoromethyl)imidazo[1,2-a]pyridin-3-yl]-N^4-hydroxy-N^2-[4-(trifluoromethyl)phenyl]pyridine-2,4-diamine]: 10 to 100 nM.

For the molecule `Cc1ccc(Nc2cccc(-n3c(C)nc4cc(F)c(F)cc43)n2)cc1` [compound 614, 6-(5,6-difluoro-2-methyl-1H-benzimidazol-1-yl)-N-(4-methylphenyl)pyridin-2-amine], the EC50 was 10 to 100 nM.

As to `FC(F)(F)c1ccc(Nc2cncc(-c3cccc4cc(C(F)(F)F)nn34)n2)cc1` [compound 15, N-[4-(trifluoromethyl)phenyl]-6-[2-(trifluoromethyl)pyrazolo[1,5-a]pyridin-7-yl]pyrazin-2-amine], the EC50 was 10 to 100 nM. For `Cc1nc2cc(Cl)ccc2n1-c1cncc(Nc2ccc(OC(F)F)cc2)n1` [compound 224, 6-(5-chloro-2-methyl-1H-benzimidazol-1-yl)-N-[4-(difluoromethoxy)phenyl]pyrazin-2-amine], the EC50 fell in the range of 10 to 100 nM.

Turning to `N#Cc1cc(Nc2ccc(Cl)nc2)nc(-c2c(CO)nc3ccc(F)cn23)c1` [compound 446, 2-[(6-chloropyridin-3-yl)amino]-6-[6-fluoro-2-(hydroxymethyl)imidazo[1,2-a]pyridin-3-yl]pyridine-4-carbonitrile], the EC50 is 100 to 3000 nM. For the molecule `Fc1cc(Nc2cncc(-c3c(C(F)(F)F)nc4ccccn34)n2)ccc1C(F)(F)F` [Cpd 208, N-[3-fluoro-4-(trifluoromethyl)phenyl]-6-[2-(trifluoromethyl)imidazo[1,2-a]pyridin-3-yl]pyrazin-2-amine], the EC50 is 10 to 100 nM. On the same count and under the same terms, as for `COc1ccc(Nc2cncc(-n3c(C)nc4ccccc43)n2)cc1` [compound 561, N-(4-methoxyphenyl)-6-(2-methyl-1H-benzimidazol-1-yl)pyrazin-2-amine], the figure is 1 to 10 nM; as for `N#Cc1cc(Nc2ccc(C(F)(F)F)cc2)nc(-c2c(C(F)(F)F)nc3ccc(F)cn23)c1` [compound 272, 2-[6-fluoro-2-(trifluoromethyl)imidazo[1,2-a]pyridin-3-yl]-6-{[4-(trifluoromethyl)phenyl]amino}pyridine-4-carbonitrile], 10 to 100 nM. For the molecule `COCCNc1cc(Nc2ccc(OC(F)F)cc2)nc(-c2c(C(F)(F)F)nc3ccccn23)c1` [compound 172, N^2-[4-(difluoromethoxy)phenyl]-N^4-(2-methoxyethyl)-6-[2-(trifluoromethyl)imidazo[1,2-a]pyridin-3-yl]pyridine-2,4-diamine], the half-maximal effective concentration (EC50) lay within 10 to 100 nM. Turning to `Cc1nc2ccc(Cl)cc2n1-c1cncc(Nc2ccc(OC(F)F)cc2)n1` [compound 221, 6-(6-chloro-2-methyl-1H-benzimidazol-1-yl)-N-[4-(difluoromethoxy)phenyl]pyrazin-2-amine], the EC50 fell in the range of 1 to 10 nM.

For `FC(F)(F)c1ccc(Nc2cncc(-c3c(C(F)(F)F)nc4sccn34)n2)cc1` [compound 118, 6-[6-(trifluoromethyl)imidazo[2,1-b][1,3]thiazol-5-yl]-N-[4-(trifluoromethyl)phenyl]pyrazin-2-amine], the EC50 fell in the range of 1 to 10 nM. On to `Cc1nc2cc(F)c(F)cc2n1-c1cccc(Nc2ccc(OC(F)F)cc2)n1` [compound 602, N-[4-(difluoromethoxy)phenyl]-6-(5,6-difluoro-2-methyl-1H-benzimidazol-1-yl)pyridin-2-amine], for which the concentration giving a half-maximal response (EC50) is 10 to 100 nM.

On to `Cc1nc2ccc(NCCO)cc2n1-c1cncc(Nc2ccc(C(F)(F)F)cc2)n1` [compound 397, 2-{[2-methyl-1-(6-{[4-(trifluoromethyl)phenyl]amino}pyrazin-2-yl)-1H-benzimidazol-6-yl]amino}ethanol], for which the EC50 lay in the range of 100 to 3000 nM. As to `FC(F)(F)c1nc2sccn2c1-c1cncc(Nc2ccccc2)n1` [compound 122, N-phenyl-6-[6-(trifluoromethyl)imidazo[2,1-b][1,3]thiazol-5-yl]pyrazin-2-amine], the concentration for a half-maximal effect (EC50) was 100 to 3000 nM. On to `CNC(=O)c1ccc(Nc2cncc(-n3c(C)nc4ccccc43)n2)cc1` [compound 186, N-methyl-4-{[6-(2-methyl-1H-benzimidazol-1-yl)pyrazin-2-yl]amino}benzamide], for which the EC50 was in the range of 100 to 3000 nM. Regarding `Cc1nn2ccccc2c1-c1cc(C#N)cc(Nc2ccc(OC(F)F)c(F)c2)n1` [compound 513, 2-{[4-(difluoromethoxy)-3-fluorophenyl]amino}-6-(2-methylpyrazolo[1,5-a]pyridin-3-yl)pyridine-4-carbonitrile], the EC50 lay in the range of 10 to 100 nM.

With `CCc1nn2ccccc2c1-c1cncc(Nc2ccc(OC(F)F)cc2)n1` [compound 521, N-[4-(difluoromethoxy)phenyl]-6-(2-ethylpyrazolo[1,5-a]pyridin-3-yl)pyrazin-2-amine], the EC50 fell in the range of 1 to 10 nM.

Consider `COc1ccc(Nc2cc(C#N)cc(-n3c(C)nc4cc(F)c(F)cc43)n2)cc1` [compound 583, 2-(5,6-difluoro-2-methyl-1H-benzimidazol-1-yl)-6-[(4-methoxyphenyl)amino]pyridine-4-carbonitrile], for which the EC50 lay in the range of 1 to 10 nM. `COc1ccc2nc(C)c(-c3cc(C#N)cc(Nc4ccc(OC(F)(F)F)cc4)n3)n2c1` [compound 380, 2-(6-methoxy-2-methylimidazo[1,2-a]pyridin-3-yl)-6-{[4-(trifluoromethoxy)phenyl]amino}pyridine-4-carbonitrile]: the half-maximal effective concentration (EC50) lay in the range of 10 to 100 nM. Consider `Cc1cc(Nc2cncc(-c3c(C(F)(F)F)nc4ccccn34)n2)on1` [compound 97, N-(3-methyl-1,2-oxazol-5-yl)-6-[2-(trifluoromethyl)imidazo[1,2-a]pyridin-3-yl]pyrazin-2-amine], for which the EC50 lay within 100 to 3000 nM.

`Cc1nn(C)c(C)c1-c1cncc(Nc2ccc(OC(F)F)cc2)n1` [compound 143, N-[4-(difluoromethoxy)phenyl]-6-(1,3,5-trimethyl-1H-pyrazol-4-yl)pyrazin-2-amine]: the EC50 is < 1 nM.

As to `Cc1nc2cc(Cl)c(Cl)cc2n1-c1cncc(Nc2ccc(OC(F)(F)F)cc2)n1` [compound 192, 6-(5,6-dichloro-2-methyl-1H-benzimidazol-1-yl)-N-[4-(trifluoromethoxy)phenyl]pyrazin-2-amine], the EC50 was in the range of 10 to 100 nM. `COc1ccc2nc(C)c(-c3cncc(Nc4ccc(C(F)(F)F)cc4)n3)n2c1` [compound 376, 6-(6-methoxy-2-methylimidazo[1,2-a]pyridin-3-yl)-N-[4-(trifluoromethyl)phenyl]pyrazin-2-amine]: the EC50 lay in the range of 10 to 100 nM.

The test is the same for the next values; noted with them: read-out: ELISA EC50 value for Bmi-1 protein, Table 1, Bmi-1 sandwich ELISA.
Regarding `Cc1nc2ccccc2n1-c1cc(C(N)=O)cc(Nc2ccc(C(F)(F)F)cc2)n1` [Cpd 203, 2-(2-methyl-1H-benzimidazol-1-yl)-6-{[4-(trifluoromethyl)phenyl]amino}pyridine-4-carboxamide], the EC50 was in the range of 100 to 3000 nM. With `N#Cc1cc(Nc2ccc(C(F)(F)F)cc2)nc(-c2c(C(F)(F)F)nc3n2CCCC3)c1` [Cpd 236, 2-{[4-(trifluoromethyl)phenyl]amino}-6-[2-(trifluoromethyl)-5,6,7,8-tetrahydroimidazo[1,2-a]pyridin-3-yl]pyridine-4-carbonitrile], the EC50 is 10 to 100 nM.
